From the supplement of paper PMC10627819

Experiments:
B. subtilis 168 [1] = test: fitness (endpoint OD595 vs no drug) (fraction); higher = more growth
Procedure, shortened: (§1)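 Fitness compares growth at the stationary-phase transition with the robust mean of no-drug control wells, as a ratio of optical densities. The ratio is capped at 1. Wells of 384-well plates held 30 µl, or 55 µl for S. pneumoniae, inoculated at OD595 0.01. Readings at OD595 every 30 min for 14 h at 37 °C were corrected against the first reading.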

S. pneumoniae D39V [2] = test: as above
Procedure, shortened: as §1

B. subtilis 168 [3] = test: Bliss interaction score (quartile over a dose matrix) (fitness difference); higher = more antagonism (negative = synergy)
Procedure, shortened: (§2)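 The Bliss score is observed minus expected fitness under the product model, reported as quartiles over technical, biological and donor/recipient replicates. Fitness is the OD595 at entry into stationary phase divided by the plate's robust no-drug mean and capped at 1. Single-drug fitness was inferred from combination data.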

S. aureus DSM 20231 = test: as above
Procedure, shortened: as §2

S. aureus Newman = test: as above
Procedure, shortened: as §2

S. pneumoniae D39V [4] = test: as above
Procedure, shortened: as §2
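For Bliss interaction score (quartile over a dose matrix) in this document: first quartile when negative (synergy) and third quartile when positive (antagonism).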

O=C(O[C@@H]1Cc2c(O)cc(O)cc2O[C@@H]1c1cc(O)c(O)c(O)c1)c1cc(O)c(O)c(O)c1 [EGCG] + C[C@H]1COc2c(N3CCN(C)CC3)c(F)cc3c(=O)c(C(=O)O)cn1c23 [Levofloxacin]
fitness, B. subtilis 168 [1], one replicate
Details	first compound 6.25 µg/mL	first compound 12.5 µg/mL	first compound 25 µg/mL
partner 0.001 µg/mL	0.993	0.712	0.276
partner 0.0078 µg/mL	0.88	0.788	0.668

fitness
Details	first compound 6.25 µg/mL	first compound 12.5 µg/mL	first compound 25 µg/mL	first compound 50 µg/mL
B. subtilis 168 [1], partner 0.002 µg/mL	0.941	–	–	–
B. subtilis 168 [1], partner 0.0039 µg/mL	0.89	0.629	–	–
B. subtilis 168 [1], partner 0.0312 µg/mL	0.05	0.038	0.0206	–
B. subtilis 168 [1], partner 0.0625 µg/mL	0.0332	0.0286	0.0506	–
B. subtilis 168 [1], partner 0.125 µg/mL	0.058	0.0419	0.0505	–
S. pneumoniae D39V [2], partner 0.1725 µg/mL	–	0.876	0.815	0.868
S. pneumoniae D39V [2], partner 0.2 µg/mL	–	0.925	0.904	0.845
S. pneumoniae D39V [2], partner 0.345 µg/mL	–	0.804	0.733	0.897
S. pneumoniae D39V [2], partner 0.4 µg/mL	–	0.832	0.826	0.671
S. pneumoniae D39V [2], partner 0.69 µg/mL	–	–	0.777	–
S. pneumoniae D39V [2], partner 0.8 µg/mL	–	0.333	0.262	0.337

Details	Bliss interaction score
B. subtilis 168 [3]	-0.0322
S. aureus DSM 20231	-0.055
S. aureus Newman	-0.0447
S. pneumoniae D39V [4]	-0.092

CCC[C@@H]1C[C@@H](C(=O)N[C@@H]([C@H]2O[C@H](SC)[C@H](O)[C@@H](O)[C@H]2O)[C@@H](C)O)N(C)C1 [Lincomycin] + CCC(C)C1C(=O)NC(=C)C(=O)NC(C(=O)NC(CSCC(C(=O)N1)NC(=O)/C(=C/C)/NC(=O)C(C(C)CC)N)C(=O)NC2C(SCC(NC(=O)CNC(=O)C3CCCN3C2=O)C(=O)NC(CCCCN)C(=O)NC4C(SCC(NC(=O)CNC(=O)C(NC(=O)C(NC(=O)C(NC(=O)CNC4=O)C)CC(C)C)CCSC)C(=O)NC(CC(=O)N)C(=O)NC(CCSC)C(=O)NC(CCCCN)C(=O)NC5C(SCC6C(=O)NC(C(=O)NC(CSC(C(C(=O)N6)NC(=O)C(NC5=O)C)C)C(=O)NC(CO)C(=O)NC(C(C)CC)C(=O)NC(CC7=CN=CN7)C(=O)NC(C(C)C)C(=O)NC(=C)C(=O)NC(CCCCN)C(=O)O)CC8=CN=CN8)C)C)C)CC(C)C [Nisin]
main component drawn
Details	fitness
B. subtilis 168 [1], first compound 0.1 µg/mL, partner 0.5 µg/mL	0.888
B. subtilis 168 [1], first compound 0.1 µg/mL, partner 1 µg/mL	0.873
B. subtilis 168 [1], first compound 0.1 µg/mL, partner 2 µg/mL	0.542
B. subtilis 168 [1], first compound 0.2 µg/mL, partner 0.5 µg/mL	0.866
B. subtilis 168 [1], first compound 0.2 µg/mL, partner 1 µg/mL	0.839
B. subtilis 168 [1], first compound 0.2 µg/mL, partner 2 µg/mL	0.58
B. subtilis 168 [1], first compound 0.4 µg/mL, partner 0.5 µg/mL	0.903
B. subtilis 168 [1], first compound 0.4 µg/mL, partner 1 µg/mL	0.876
B. subtilis 168 [1], first compound 0.4 µg/mL, partner 2 µg/mL	0.643
S. pneumoniae D39V [2], first compound 0.2 µg/mL, partner 0.4275 µg/mL	0.751
S. pneumoniae D39V [2], first compound 0.2 µg/mL, partner 0.855 µg/mL	0.816
S. pneumoniae D39V [2], first compound 0.2 µg/mL, partner 1.71 µg/mL	0.0439
S. pneumoniae D39V [2], first compound 0.215 µg/mL, partner 3.2 µg/mL	0.0034
S. pneumoniae D39V [2], first compound 0.215 µg/mL, partner 6.4 µg/mL	0.0021
S. pneumoniae D39V [2], first compound 0.4 µg/mL, partner 0.4275 µg/mL	0.711
S. pneumoniae D39V [2], first compound 0.4 µg/mL, partner 0.855 µg/mL	0.197
S. pneumoniae D39V [2], first compound 0.4 µg/mL, partner 1.71 µg/mL	0.03
S. pneumoniae D39V [2], first compound 0.43 µg/mL, partner 3.2 µg/mL	0.0144
S. pneumoniae D39V [2], first compound 0.43 µg/mL, partner 6.4 µg/mL	0.0124
S. pneumoniae D39V [2], first compound 0.8 µg/mL, partner 0.4275 µg/mL	0.188
S. pneumoniae D39V [2], first compound 0.8 µg/mL, partner 0.855 µg/mL	0.124
S. pneumoniae D39V [2], first compound 0.8 µg/mL, partner 1.71 µg/mL	0.0586
S. pneumoniae D39V [2], first compound 0.86 µg/mL, partner 1.6 µg/mL	0.0707
S. pneumoniae D39V [2], first compound 0.86 µg/mL, partner 3.2 µg/mL	0.0001
S. pneumoniae D39V [2], first compound 0.86 µg/mL, partner 6.4 µg/mL	0.0011

fitness, B. subtilis 168 [1], one replicate, main component drawn
Details	partner 1.25 µg/mL	partner 1.6 µg/mL	partner 2.5 µg/mL	partner 3.2 µg/mL	partner 4 µg/mL	partner 5 µg/mL	partner 6.4 µg/mL	partner 8 µg/mL	partner 16 µg/mL
first compound 0.1 µg/mL	–	–	–	–	0.432	–	–	0.0171	0.0218
first compound 0.2 µg/mL	–	–	–	–	0.212	–	–	0.0182	0.0151
first compound 0.4 µg/mL	0.885	0.635	0.621	0.0271	0.202	0.0364	0.0378	0.0085	0.0174
first compound 0.8 µg/mL	0.858	0.572	0.573	0.0171	–	0.065	0.035	–	–
first compound 1.6 µg/mL	0.836	0.571	0.356	0.0205	–	0.0299	0.0358	–	–

main component drawn
Details	Bliss interaction score
B. subtilis 168 [3]	0.0535
S. aureus DSM 20231	0.117
S. aureus Newman	0.0755
S. pneumoniae D39V [4]	-0.0491

COc1c(N2C[C@@H]3CCCN[C@@H]3C2)c(F)cc2c(=O)c(C(=O)O)cn(C3CC3)c12 [Moxifloxacin] + CCC(C)C1C(=O)NC(=C)C(=O)NC(C(=O)NC(CSCC(C(=O)N1)NC(=O)/C(=C/C)/NC(=O)C(C(C)CC)N)C(=O)NC2C(SCC(NC(=O)CNC(=O)C3CCCN3C2=O)C(=O)NC(CCCCN)C(=O)NC4C(SCC(NC(=O)CNC(=O)C(NC(=O)C(NC(=O)C(NC(=O)CNC4=O)C)CC(C)C)CCSC)C(=O)NC(CC(=O)N)C(=O)NC(CCSC)C(=O)NC(CCCCN)C(=O)NC5C(SCC6C(=O)NC(C(=O)NC(CSC(C(C(=O)N6)NC(=O)C(NC5=O)C)C)C(=O)NC(CO)C(=O)NC(C(C)CC)C(=O)NC(CC7=CN=CN7)C(=O)NC(C(C)C)C(=O)NC(=C)C(=O)NC(CCCCN)C(=O)O)CC8=CN=CN8)C)C)C)CC(C)C [Nisin]
main component drawn
Details	fitness
B. subtilis 168 [1], first compound 0.0312 µg/mL, partner 0.5 µg/mL	0.0551
B. subtilis 168 [1], first compound 0.0312 µg/mL, partner 1 µg/mL	0.0324
B. subtilis 168 [1], first compound 0.0312 µg/mL, partner 2 µg/mL	0.0208
B. subtilis 168 [1], first compound 0.0625 µg/mL, partner 0.5 µg/mL	0.0449
B. subtilis 168 [1], first compound 0.0625 µg/mL, partner 1 µg/mL	0.0306
B. subtilis 168 [1], first compound 0.0625 µg/mL, partner 2 µg/mL	0.022
B. subtilis 168 [1], first compound 0.125 µg/mL, partner 0.5 µg/mL	0.0446
B. subtilis 168 [1], first compound 0.125 µg/mL, partner 1 µg/mL	0.0343
B. subtilis 168 [1], first compound 0.125 µg/mL, partner 2 µg/mL	0.0231
S. pneumoniae D39V [2], first compound 0.0037 µg/mL, partner 0.4275 µg/mL	0.993
S. pneumoniae D39V [2], first compound 0.0037 µg/mL, partner 0.855 µg/mL	0.986
S. pneumoniae D39V [2], first compound 0.0037 µg/mL, partner 1.71 µg/mL	0.0722
S. pneumoniae D39V [2], first compound 0.005 µg/mL, partner 6.4 µg/mL	0.0381
S. pneumoniae D39V [2], first compound 0.0075 µg/mL, partner 0.4275 µg/mL	0.971
S. pneumoniae D39V [2], first compound 0.0075 µg/mL, partner 0.855 µg/mL	0.974
S. pneumoniae D39V [2], first compound 0.0075 µg/mL, partner 1.71 µg/mL	0.0723
S. pneumoniae D39V [2], first compound 0.01 µg/mL, partner 6.4 µg/mL	0.0415
S. pneumoniae D39V [2], first compound 0.015 µg/mL, partner 0.4275 µg/mL	0.898
S. pneumoniae D39V [2], first compound 0.015 µg/mL, partner 0.855 µg/mL	0.922
S. pneumoniae D39V [2], first compound 0.015 µg/mL, partner 1.71 µg/mL	0.089
S. pneumoniae D39V [2], first compound 0.02 µg/mL, partner 6.4 µg/mL	0.0317

fitness, B. subtilis 168 [1], one replicate, main component drawn
Details	first compound 0.0312 µg/mL	first compound 0.0625 µg/mL	first compound 0.125 µg/mL	first compound 2 µg/mL	first compound 4 µg/mL	first compound 8 µg/mL
partner 0.5 µg/mL	–	–	–	0.0297	0.0204	0.0134
partner 1 µg/mL	–	–	–	0.0435	0.031	0.0236
partner 1.25 µg/mL	0.0287	0.0387	0.0145	–	–	–
partner 1.6 µg/mL	0.0362	0.0251	0.0203	–	–	–
partner 2 µg/mL	–	–	–	0.0532	0.0341	0.0259
partner 2.5 µg/mL	0.037	0.0186	0.0151	–	–	–
partner 3.2 µg/mL	0.0222	0.0273	0.0354	–	–	–
partner 4 µg/mL	–	–	–	0.0258	0.0254	0.0138
partner 5 µg/mL	0.0373	0.0148	0.0138	–	–	–
partner 6.4 µg/mL	0.0438	0.0244	0.0155	–	–	–
partner 8 µg/mL	–	–	–	0.0213	0.0075	0.0166
partner 16 µg/mL	–	–	–	0.008	0.0061	0.0096

main component drawn
Details	Bliss interaction score
B. subtilis 168 [3]	0.0196
S. aureus DSM 20231	0.0667
S. aureus Newman	-0.0568
S. pneumoniae D39V [4]	0.116
